Tests used:
[1] = system: human prostate cancer cell line PC-3; test: MTT proliferation inhibition, PC-3; type: cell-based; details: 48 h
Procedure: (§1) Human leukemia cell line K562, clear-cell ovarian carcinoma cell line ES-2, human prostate cancer cell line PC-3, human breast cancer cell line MCF-7, cell line Hela, human liver cancer cell line H7402 and human ovarian cancer cell line 3-AO were transferred into a culture flask and were cultured in a medium at 37° C. in a 5% CO2 and saturation humidity. One bottle of cells in logarithmic growth phase was picked out and was blew and beaten to be uniform with a pipette, then took some cell suspension solution to prepare blood counting plate smear to count cells under inverted microscope, and then adjusted the cell number to be 1×10^5/mL by adding some culture medium. Cells were seeded on a 96-well plate on which also drug tests performed. Blank control group, negative control group, positive control group and drug test group were established on the plate while the surrounding wells of the plate were not used (but filled with sterile PBS), wherein the blank control groups were prepared by addition of culture medium 150 μL per well, the negative control groups were prepared by addition of cell suspension solution 100 μL per well and culture medium 50 μL per well, the positive control groups were prepared by addition of cell suspension solution 100 μL per well and positive control drug solution 50 μL per well, the drug test groups were prepared by addition of cell suspension solution 100 μL per well and test compound solution 50 μL per well, and there were 5 different concentrations of drug in the positive control group and the drug test group respectively: 0.01, 0.1, 1, 10, 100 μmol·L^−1, each concentration was established with 3 parallel wells. After the drug was added, the 96-well plate was incubated for 48 h at 37° C. in a CO2 incubator of 5% CO2 and saturation humidity. Upon completion of the incubation, 20 μL MTT solution (concentration was 5 mg/mL) was added to each well and incubated for an additional 4 h, and after the 96-well plate was centrifuged at 2000 rpm for 30 min, medium of each well was suck out carefully and removed and 100 μL DMSO was added instead, followed by vibrating on a tablet shaker for 15 min to re-dissolve formazan crystals completely. OD value of each well was measured at 570 nm wavelength using an enzyme-linked immunosorbent assay reader to calculate cellular proliferation inhibitory ratio of each drug in different concentrations. And half-inhibitory concentration (IC50) was calculated using statistical software SPSS 16.0, wherein the cellular proliferation inhibitory ratio can be calculated as following equation: […]

[2] = system: 7 cell lines (ES-2, K562, PC-3, MCF-7, Hela, H7402, 3-AO); test: MTT proliferation inhibition, all 7 tumor cell lines (summary in words); type: cell-based
Procedure: as §1

[3] = system: liver cancer H22; test: Inhibition assay of oral administration against liver cancer H22 (Example 33); type: in vivo, Kunming mice; details: oral gavage, 100 mg/kg/d, sacrificed after 13 days
Procedure: (1) the negative control: PBS; (2) Xeloda group: 100 mg/kg/d; (3) TFU group: 70 mg/kg/d; (4) BC-01 group: 100 mg/kg/d.
[formula] [formula] [formula] 2.2: Inhibition Assay of Intravenous Administration Against Liver Cancer H22

[4] = system: cell line Hela; test: MTT proliferation inhibition, Hela; type: cell-based
Procedure: as §1

[5] = system: human leukemia cell line K562; test: MTT proliferation inhibition, K562; type: cell-based; details: 48 h
Procedure: as §1

[6] = system: liver cancer H22; test: Inhibition assay of intravenous administration against liver cancer H22 (Example 33); details: tail intravenous injection; for Number of mice alive: 7 mice per group, two cycles; for Tumor weight / inhibitory ratio (%): sacrificed after 13 days
Procedure: Extracted the ascites from H22 ascites tumour bearing mice, washed the ascites with sterile PBS for three times and then resuspended the cells with sterile PBS (cells counts: 3.75×10^7 cells/mL), inoculated it into right oxter of Kunming mice 100 uL per mouse.
The H22 tumor-bearing mice were randomized to 4 groups (7 mice per group) after being weighted. […] The size of tumor was measured by using a vernier calliper and weight of mouse by using an electronic balance at the beginning and ending of every cycle, then calculated their mean value. The mice were sacrificed after 13 days and the tumors were taken out and weighted. Tumor volume and inhibitory ratio were calculated as the following equation (L and W referred to length and width of tumor respectively): […]

[7] = system: human ovarian cancer cell line 3-AO; test: MTT proliferation inhibition, 3-AO; type: cell-based; details: 48 h
Procedure: as §1

[8] = system: human breast cancer cell line MCF-7; test: MTT proliferation inhibition, MCF-7; type: cell-based; details: 48 h
Procedure: as §1

[9] = system: clear-cell ovarian carcinoma cell line ES-2; test: MTT proliferation inhibition, ES-2; type: cell-based; details: for EC50: 48 h
Procedure: as §1

Row | Structure (SMILES) | EC50 [1] [µM] | anti-proliferation effect against all the tumor cells [2] | Number of mice alive ([6]; 70 mg/kg/d) | Body weight(g) Beginning ([6]; 70 mg/kg/d) [g] | Body weight(g) Ending ([6]; 70 mg/kg/d) [g] | Tumor weight ([6]; 70 mg/kg/d) [g] | inhibitory ratio (%) ([6]; 70 mg/kg/d) | EC50 [9] [µM] | also measured
1 | CC(C)C[C@H](NC(=O)[C@@H](O)[C@H](N)Cc1ccccc1)C(=O)OCn1cc(F)c(=O)[nH]c1=O.Cl [BC-01, (S)-(5-fluoro-2,4-dioxo-3,4-dihydropyrimidinyl-1(2H))methyl-2-((2S,3R)-3-(amino)-2-hydroxy-4-phenylbutyryl)-4-methylpentanoate hydrochloride] | 10.7 | obvious anti-proliferation effect | 7 | 30.00 ± 1.15 | 31.05 ± 1.78 | 0.37 ± 0.08 | 73.00 | 2.53 | Tumor weight ([3]; two cycles (5 days on, 2 off)): 0.26 g; inhibitory ratio (%) ([3]; two cycles): 66.67%; proliferation inhibition activity against Hela compared with ubenimex and 5-FU [4]: much higher proliferation inhibition activity; EC50 ([4]; 48 h): 0.73 µM; EC50 [5]: 5.82 µM; Number of mice alive ([6]; 50 mg/kg/d): 7; Body weight(g) Beginning ([6]; 50 mg/kg/d): 30.32 ± 1.57 g; Body weight(g) Ending ([6]; 50 mg/kg/d): 31.53 ± 4.71 g; Tumor weight ([6]; 50 mg/kg/d): 0.58 ± 0.12 g; inhibitory ratio (%) ([6]; 50 mg/kg/d): 57.66%; EC50 [7]: 2.59 µM; EC50 [8]: 1.35 µM
2 | CC(C)C[C@H](NC(=O)[C@@H](O)[C@H](N)Cc1ccccc1)C(=O)NCC(=O)OCn1cc(F)c(=O)[nH]c1=O.Cl [BC-02, (5-fluoro-2,4-dioxo-3,4-dihydropyrimidinyl-1(2H))methyl-2-((S)-2-((2S,3R)-3-amino-2-hydroxy-4-phenylbutanamido)-4-methylpentanamido)acetate hydrochloride] | 3.45 | obvious anti-proliferation effect | 7 | 31.81 ± 4.99 | 32.83 ± 4.64 | 0.63 ± 0.01 | 54.31 | 1.34 | proliferation inhibition activity against ES-2 [9]: great proliferation inhibition activity

From US9861703B2 (Jinan Platinum Pharmatech Co. Ltd., priority 2013, dated 2018)
